Assay results taken from patent US8574563B2 (Bristol-Myers Squibb Company, priority 2006, dated 2013).

What follows are compounds tested on HCV 1b-377-neo replicon cells (assay: HCV replicon assay, HCV 1b-377-neo replicon cells (1b FRET)). Settings: HCV 1b-377-neo replicon cells; HCV 1b genotype; read-out: EC50 range against HCV 1b (Table 2, Range).
Type: cell-based, Hepatitis C virus genotype 1b
Protocol: An HCV Replion assay was utilized in the present disclosure, and was prepared, conducted and validated as described in commonly owned PCT/US2006/022197 and in O'Boyle et. al. Antimicrob Agents Chemother. 2005 April; 49(4):1346-53.
HCV 1b-377-neo replicon cells were used to test the currently described compound series as well as cells resistant to compound A due to a Y2065H mutation in NS5A (described in application PCT/US2006/022197). The compounds tested were determined to have more than 10-fold less inhibitory activity on cells resistant to compound A than wild-type cells indicating a related mechanism of action between the two compound series. Thus, the compounds of the present disclosure can be effective to inhibit the function of the HCV NS5A protein and are understood to be as effective in combinations as previously described in application PCT/US2006/022197 and commonly owned WO/04014852. Further, the compounds of the present disclosure can be effective against the HCV 1b genotype. It should also be understood that the compounds of the present disclosure can inhibit multiple genotypes of HCV. […] In one embodiment compounds of the present disclosure are active against the 1a, 1b, 2a, 2b, 3a, 4a, and 5a genotypes.

SMILES | EC50 [pM]
CN(C)C(C(=O)N1CCCC1c1nc(-c2ccc(-c3ccc(-c4cnc(C5CCCN5C(=O)Cc5csc6ccccc56)[nH]4)cc3)cc2)c[nH]1)c1ccccc1 [Example 94-54, (1R)-2-((2S)-2-(5-(4′-(2-((2S)-1-(1-benzothiophen-3-ylacetyl)-2-pyrrolidinyl)-1H-imidazol-5-yl)-4-biphenylyl)-1H-imidazol-2-yl)-1-pyrrolidinyl)-N,N-dimethyl-2-oxo-1-phenylethanamine] | 1 to 999

Same assay, conditions: Hepatitis C virus, HCV 1b-377-neo replicon cells; HCV 1b genotype; read-out: EC50 range against HCV 1b (Table 2, Range)

SMILES | EC50 [pM]
CCC(C)NCC(=O)N1CCC[C@H]1c1ncc(-c2ccc(-c3ccc(-c4cnc([C@@H]5CCCN5C(=O)[C@@H](NC(=O)OC)C(C)C)[nH]4)cc3)cc2)[nH]1 (stereo partly drawn) [LS24, methyl ((1S)-1-(((2S)-2-(5-(4′-(2-((2S)-1-(N-sec-butylglycyl)-2-pyrrolidinyl)-1H-imidazol-5-yl)-4-biphenylyl)-1H-imidazol-2-yl)-1-pyrrolidinyl)carbonyl)-2-methylpropyl)carbamate] | 1 to 999
Cc1nc([C@@H]2CCCN2C(=O)[C@@H](c2ccccc2)N(C)C)[nH]c1-c1ccc(-c2ccc(-c3nc([C@@H]4CCCN4C(=O)[C@@H](c4ccccc4)N(C)C)[nH]c3C)cc2)cc1 [Example E5g, (1R,1′R)-2,2′-(4,4′-biphenyldiylbis((4-methyl-1H-imidazole-5,2-diyl)(2S)-2,1-pyrrolidinediyl))bis(N,N-dimethyl-2-oxo-1-phenylethanamine)] | 1 to 999
COC(=O)N[C@@H](CC(=O)N(C)C)C(=O)N1CCC[C@H]1c1ncc(-c2ccc(-c3ccc(-c4cnc([C@@H]5CCCN5C(=O)[C@@H](NC(=O)OC)C(C)C)[nH]4)cc3)cc2)[nH]1 [Example M113, methyl ((1S)-3-(dimethylamino)-1-(((2S)-2-(5-(4′-(2-((2S)-1-((2S)-2-((methoxycarbonyl)amino)-3-methylbutanoyl)-2-pyrrolidinyl)-1H-imidazol-5-yl)-4-biphenylyl)-1H-imidazol-2-yl)-1-pyrrolidinyl)carbonyl)-3-oxopropyl)carbamate] | 1000 to 99000
COC(=O)N[C@@H](C)C(=O)N1C[C@H](O)C[C@H]1c1ncc(-c2ccc(-c3ccc(-c4cnc([C@@H]5C[C@@H](O)CN5C(=O)[C@H](C)NC(=O)OC)[nH]4)cc3)cc2)[nH]1 [JG-4] | 1000 to 99000
COC(=O)N[C@@H](C)C(=O)N1CCC[C@H]1c1ncc(-c2ccc(-c3ccc(-c4cnc([C@@H]5CCCN5C(=O)[C@H](Cc5ccc(O)cc5)NC(=O)OC)[nH]4)cc3)cc2)[nH]1 [cj-113, methyl ((1S)-1-(4-hydroxybenzyl)-2-((2S)-2-(5-(4′-(2-((2S)-1-(N-(methoxycarbonyl)-L-alanyl)-2-pyrrolidinyl)-1H-imidazol-5-yl)-4-biphenylyl)-1H-imidazol-2-yl)-1-pyrrolidinyl)-2-oxoethyl)carbamate] | 1 to 999
COC(=O)N[C@H](C(=O)N1CCC[C@H]1c1ncc(-c2ccc(-c3ccc(-c4cnc([C@@H]5CCCN5C(=O)[C@@H](Nc5n[nH]c(N)n5)C(C)C)[nH]4)cc3)cc2)[nH]1)C(C)C | 1 to 999
CCN(CC)[C@@H](C(=O)N1CCC[C@H]1c1ncc(-c2ccc(-c3ccc(-c4cnc([C@@H]5CCCN5C(=O)[C@H](C)NC(=O)OC)[nH]4)cc3)cc2)[nH]1)c1ccccc1 [Example M49, methyl ((1S)-2-((2S)-2-(5-(4′-(2-((2S)-1-((2R)-2-(diethylamino)-2-phenylacetyl)-2-pyrrolidinyl)-1H-imidazol-5-yl)-4-biphenylyl)-1H-imidazol-2-yl)-1-pyrrolidinyl)-1-methyl-2-oxoethyl)carbamate] | 1000 to 99000
COC(=O)N[C@@H](C)CC(=O)N1CCC[C@H]1c1ncc(-c2ccc(-c3ccc(-c4cnc([C@@H]5CCCN5C(=O)C[C@H](C)NC(=O)OC)[nH]4)cc3)cc2)[nH]1 [cj-126, dimethyl (4,4′-biphenyldiylbis(1H-imidazole-5,2-diyl(2S)-2,1-pyrrolidinediyl((2S)-4-oxo-4,2-butanediyl)))biscarbamate] | 1 to 999
COC(=O)N[C@@H](C(=O)N1CCC[C@H]1c1ncc(-c2ccc(-c3ccc(-c4cnc([C@@H]5CCCN5C(=O)CCC(C)=O)[nH]4)cc3)cc2)[nH]1)c1ccccc1 [Example 84-39, methyl ((1R)-2-oxo-2-((2S)-2-(5-(4′-(2-((2S)-1-(4-oxopentanoyl)-2-pyrrolidinyl)-1H-imidazol-5-yl)-4-biphenylyl)-1H-imidazol-2-yl)-1-pyrrolidinyl)-1-phenylethyl)carbamate] | 1 to 999
COC(=O)N[C@@H](C)C(=O)N1CCC[C@H]1c1ncc(-c2ccc(-c3ccc(-c4nc([C@@H]5CCCN5C(=O)[C@H](C)NC(=O)OC)[nH]c4C)cc3)cc2)[nH]1 [Example E5d, methyl ((1S)-2-((2S)-2-(4-(4′-(2-((2S)-1-(N-(methoxycarbonyl)-L-alanyl)-2-pyrrolidinyl)-4-methyl-1H-imidazol-5-yl)-4-biphenylyl)-1H-imidazol-2-yl)-1-pyrrolidinyl)-1-methyl-2-oxoethyl)carbamate] | 1 to 999
CCN(CC)[C@@H](C(=O)N1CCC[C@H]1c1ncc(-c2ccc(-c3ccc(-c4cnc([C@@H]5CCCN5C(=O)[C@H](Cn5cccn5)NC(=O)OC)[nH]4)cc3)cc2)[nH]1)c1ccccc1 [cj-36, methyl ((1S)-2-((2S)-2-(5-(4′-(2-((2S)-1-((2R)-2-(diethylamino)-2-phenylacetyl)-2-pyrrolidinyl)-1H-imidazol-5-yl)-4-biphenylyl)-1H-imidazol-2-yl)-1-pyrrolidinyl)-2-oxo-1-(1H-pyrazol-1-ylmethyl)ethyl)carbamate] | 1 to 999
CCN(CC)[C@@H](C(=O)N1CCC[C@H]1c1ncc(-c2ccc(-c3ccc(-c4cnc([C@@H]5CCCN5C(=O)[C@@H](NC(=O)OC)C5CC5)[nH]4)c(F)c3)cc2)[nH]1)c1ccccc1 [Example D49, methyl ((1S)-1-cyclopropyl-2-((2S)-2-(5-(4′-(2-((2S)-1-((2R)-2-(diethylamino)-2-phenylacetyl)-2-pyrrolidinyl)-1H-imidazol-5-yl)-3-fluoro-4-biphenylyl)-1H-imidazol-2-yl)-1-pyrrolidinyl)-2-oxoethyl)carbamate] | 1 to 999
COC(=O)N[C@@H](C(=O)N1CCC[C@H]1c1ncc(-c2ccc(-c3ccc(-c4cnc([C@@H]5CCCN5C(=O)C5(C(F)(F)F)CC5)[nH]4)cc3)cc2)[nH]1)c1ccccc1 [Example 84-32, methyl ((1R)-2-oxo-1-phenyl-2-((2S)-2-(5-(4′-(2-((2S)-1-((1-(trifluoromethyl)cyclopropyl)carbonyl)-2-pyrrolidinyl)-1H-imidazol-5-yl)-4-biphenylyl)-1H-imidazol-2-yl)-1-pyrrolidinyl)ethyl)carbamate] | 1 to 999
COC(=O)N[C@H](C(=O)N1CCC[C@H]1c1nc(-c2ccc(-c3ccc(-c4cnc([C@@H]5CCCN5C(=O)[C@H](NC(=O)OC)c5ccccc5)[nH]4)c(F)c3)cc2F)c[nH]1)C1CC1 [Example D66, methyl ((1S)-1-cyclopropyl-2-((2S)-2-(5-(3,3′-difluoro-4′-(2-((2S)-1-((2R)-2-((methoxycarbonyl)amino)-2-phenylacetyl)-2-pyrrolidinyl)-1H-imidazol-5-yl)-4-biphenylyl)-1H-imidazol-2-yl)-1-pyrrolidinyl)-2-oxoethyl)carbamate] | 1 to 999
